Test results reported in patent US10995070B2, “Acetyl-CoA carboxylase modulators” (Monsanto Technology LLC, priority 2013, dated 2021).

How the values were obtained:
Type in all cases: cell-based
Phytophthora capsici = test: Fungal growth inhibition assay, P. capsici; conditions: 48 h
Description: (§1) Spores were isolated from previously sub-cultured plates of Botrytis cinerea, Phytophthora capsici, Fusarium moniliforme, Fusarium viguliforme, Collectotrichum graminicola, and Diplodia maydis. All spores were filtered and collected in a sterile glass bowl to isolate the spores from the mycelia. The isolation and sub-culture plate condition for each pathogen is described below.
Spore isolation for P. capsici: Three to five days prior to the assay a 2-3 week old V8 (17%)+CaCO3 (3 g/L)+20 g agar plate was removed from a dark 25° C. incubator and cut up into small chunks. One plate was separated into two deep well plates and rinsed with sterile distilled water three times. The cut up pieces were incubated under light in a sterile filter hood with 25 ml of sterile distilled water. On the day of the assay the water was removed and 5-7 ml of fresh sterile distilled water was added. One plate was incubated at 4° C. for 45-60 minutes and then placed at room temperature for about 45-60 minutes. The spores were collected in a sterile filter bowl containing a fluted piece of filter paper. The spores were vortexed in a conical tube for 30-60 seconds to remove the flagella of the zoospores after isolation.
(§2) After spore isolation, pathogen spores were counted on a hemocytometer to calculate the spores/ml. In 17% V8 liquid media containing 3 g/L CaCO3, isolated spores were diluted to individual concentrations based on the growth curves at 48 hours of each pathogen. The spore concentrations for each pathogen were as follows: B. cinerea—10,000 sp/ml; P. capsici—300 sp/ml; F. monliforme—500 sp/ml; F. virguliforme—500 sp/ml; C. graminicola—3,000 sp/ml; and D. maydis—3,000 sp/ml.
(§3) Chemistry stocks were dissolved in DMSO at 2.5 mg/ml. Chemistry was diluted in a 96-well stock plate in five-fold dilutions to obtain a final concentration of 50, 10, and 2 ppm in vitro. The final concentration of the positive control after the five-fold dilutions was as follows: soraphen—0.5, 0.1, and 0.02 ppm. Negative controls on each plate included 2% DMSO, water containing spores and media, and a blank for background subtraction.
(§4) In a 96-well plate the spore solution, chemistries, and controls were combined to make the final solution concentrations mentioned above. Upon addition of the chemistry, an OD600 reading was done to assess chemical precipitation. The 96-well plates were incubated in plastic tubs containing wet paper towels under the following conditions, 25° C. in the dark for P. capsici and B. cinerea or 26° C. with light/dark cycle for C. graminicola, D. maydis, F. virguliforme, F. monliforme. Plate readings were repeated at 24 and 48 hrs. Visual ratings were performed at 24 and 48 hrs to check for precipitation and confirm efficacy. Visual and OD600 ratings of the chemistry at 48 hours were compared to the 2% DMSO control to determine the percent of pathogen growth inhibition.

Diplodia maydis = test: Fungal growth inhibition assay, D. maydis; conditions: 48 h
Description: as §1
Spore isolation for D. maydis: A 3-4 week old PDA (pre-mix) plate was removed from 26° C. incubator with a light/dark 12 hour cycle and the mycelia were treated with 6-7 ml of sterile distilled water, scraped into a sterile petri dish, and smashed to open the pycnidia. The spores were then collected in a sterile filter bowl containing a fluted piece of filter paper and poured into a conical tube.
as §2, §3, §4

[1] = system: Collectotrichum graminicola; test: Fungal growth inhibition assay, C. graminicola; conditions: Colletotrichum graminicola, 48 h
Description: as §1
Spore isolation for C. graminicola: A 1-2 week old oatmeal agar (pre-mix) plate was removed from 26° C. incubator with a light/dark 12 hour cycle and the mycelia were treated with 10-15 ml of filter sterilized distilled water. The mycelia were scraped to re-suspend the spores. The spores were then collected in a sterile filter bowl containing a piece of sterile cheesecloth and poured into a conical tube.
as §2, §3, §4

Fusarium moniloforme = test: Fungal growth inhibition assay, F. moniliforme; conditions: 48 h
Description: as §1
Spore isolation for F. moniliforme: A 1 week old PDA (potato dextrose agar, pre-mix) plate was removed from 26° C. incubator with a light/dark 12 hour cycle and the mycelia were treated with 5-10 ml of filter sterilized Triton X 100 (0.05%). The mycelia were scraped to re-suspend the spores. The spores were then collected in a sterile filter bowl containing a fluted piece of filter paper.
as §2, §3, §4

Fusarium virguliforme = test: Fungal growth inhibition assay, F. virguliforme; conditions: 48 h
Description: as §1
Spore isolation for F. virguliforme: A 2-3 week old PDA (pre-mix) plate containing cefotaxime (100 mg/L) and kanamycin (50 mg/L) was removed from 26° C. incubator with a light/dark 12 hour cycle and the mycelia were treated with 5-10 ml of filter sterilized distilled water. The mycelia were scraped to re-suspend the spores. The spores were then collected in a sterile filter bowl containing a fluted piece of filter paper and poured into a conical tube.
as §2, §3, §4

Saccharomyces cerevisiae = test: Yeast growth inhibition assay; conditions: read-out: S. cerevisiae % growth inhibition
Description: Yeast cells (Ade2 strain) were grown in liquid YPD (1% yeast extract, 2% peptone, 2% dextrose) for 16 hours at 30° C. from previously sub-cultured plates of Saccharomyces cerevisiae. The OD600 of the overnight culture was checked via spectrophotometer and diluted to a concentration of 2×10^4 cells/ml.
Chemistry stocks were dissolved in DMSO to a concentration of 10 mM. Chemistry stocks were further diluted in a 96-well stock plate to obtain final concentrations of […] in 1% DMSO. The final concentrations of the soraphen positive control were 400, 40, and 3.2 nM. The negative controls on each plate included a background subtraction control containing yeast and 1% DMSO (without chemistry) and a second contamination control containing YPD (with no yeast) and 1% DMSO (without chemistry).
98 μl liquid YPD was added to 2 μl diluted stock of DMSO per well and mixed thoroughly. After mixing, 100 μl of the diluted yeast solution was added to bring the final yeast concentration to 1×10^4 cells/ml or 2000 cells per well. An initial spectrophotometric reading at OD600 was conducted on the entire plate and served as the 0 hours time point used to subtract any background. […] […] […] All experiments were conducted in triplicate. Averages were reported along with standard deviation calculation to generate error bars. Each plate contained its own controls and consisted of inoculated+DMSO, non-inoculated+DMSO, and a titration series of soraphen at 400, 40, and 3.2 nM.

Compound	inhibition at 2 ppm (Phytophthora capsici) [%]	inhibition at 10 ppm (Phytophthora capsici) [%]	inhibition at 50 ppm (Phytophthora capsici) [%]	inhibition at 2 ppm (Diplodia maydis) [%]	inhibition at 10 ppm (Diplodia maydis) [%]	inhibition at 2 ppm [1] [%]	inhibition at 10 ppm [1] [%]	inhibition at 50 ppm [1] [%]	inhibition at 2 ppm (Fusarium moniloforme) [%]	inhibition at 10 ppm (Fusarium moniloforme) [%]	inhibition at 2 ppm (Fusarium virguliforme) [%]	inhibition at 10 ppm (Fusarium virguliforme) [%]	inhibition at 3.7 µM (Saccharomyces cerevisiae) [%]	inhibition at 11.1 µM (Saccharomyces cerevisiae) [%]	inhibition at 33.3 µM (Saccharomyces cerevisiae) [%]	inhibition at 100 µM (Saccharomyces cerevisiae) [%]	inhibition at 50 ppm (Diplodia maydis; 50 ppm) [%]	inhibition at 50 ppm (Fusarium moniloforme; 50 ppm) [%]
O=C(O)Cc1ccc(-c2nc3ccccc3c(-c3ccccc3)c2Cl)s1 [Formula Ib-ii, 2-(5-(3-chloro-4-phenylquinolin-2-yl)thiophen-2-yl)acetic acid]	18	31	49	55	70	0	67	78	39	45	31	41	0	0	55	79		
O=C(O)Cc1ccc(-c2cc(-c3ccccc3)c3ccccc3n2)s1 [Formula Ib-iv, 2-(5-(4-phenylquinolin-2-yl)thiophen-2-yl)acetic acid]	0	11	80	8	45	0	53	97	17	31	4	29	0	0	15	99	89	36
